Values quoted from earlier work as cited in patent publication US20220305008A1, “TREATMENT OF CANCER HAVING GNAQ OR GNA11 GENETIC MUTATIONS WITH PROTEIN KINASE C INHIBITORS” (IDEAYA BIOSCIENCES, INC., priority 2019, published 2022).

Columns and labels:
[1] = system: metastatic uveal melanoma (MUM); conditions: patients with MUM (metastatic uveal melanoma)
[2] = in vivo, po

Compound: CC1(N)CCN(c2cccnc2NC(=O)c2nc(-c3ncccc3C(F)(F)F)cnc2N)CC1 [IDE196]
- anti-tumor activity [1]: preliminary anti-tumor activity
- safety and tolerability of dose [2]: safe and tolerable
